Results from patent US20200017495A1, “NOVEL HETEROCYCLIC COMPOUNDS AND THEIR USE IN PREVENTING OR TREATING BACTERIAL INFECTIONS” (priority 2017, published 2020).
Values joined by “and” are separate entries in the source; they are usually repeats but may differ in a detail not shown here. Equal values may be shown once. Read-outs that look alike come from different tables or passages of the source.

What was measured:
Type in all cases: cell-based
[1] = tested on: Proteus mirabilis (PMI) isolates; test: microbe, parasite or virus in culture
Method: (§1) Method 2: MIC of Compounds Alone and Combined with Antibacterials Against Bacterial Isolates
(§2) Compounds of the present invention were assessed against genotyped bacterial strains (Table 3, 4) alone or in combination with an antibacterial (Table 2). […] Log phase bacterial suspensions were adjusted to a final density of 5.10^5 CFU/mL in cation-adjusted Mueller-Hinton broth (ca-MHB; Becton-Dickinson and Company) and added to each well (98 μL). Microplates were incubated for 16-20 h at 35° C. in ambient air. The MIC of the compounds was defined as the lowest concentration of said compounds that prevented bacterial growth as read by visual inspection. The MIC of ATB at each compound concentration was defined as the lowest concentration of ATB that prevented bacterial growth as read by visual inspection.

[2] = tested on: Salmonella typhimurium (STY) isolates; test: MIC of compounds alone and combined with antibacterials, broth microdilution (CLSI)
Method: as §1
(§3) Compounds of the present invention were assessed against genotyped bacterial strains (Table 3, 4) alone or in combination with an antibacterial (Table 2). […]. Briefly, compounds alone according to the invention were prepared in DMSO and spotted (2 μL each) on sterile polystyrene plates (Corning, 3788). Combinations of compounds and antibiotics dilutions were prepared in DMSO and spotted (1 μL each) on sterile polystyrene plates (Corning, 3788). Log phase bacterial suspensions were adjusted to a final density of 5.10^5 CFU/mL in cation-adjusted Mueller-Hinton broth (ca-MHB; Becton-Dickinson and Company) and added to each well (98 μL). Microplates were incubated for 16-20 h at 35° C. in ambient air. The MIC of the compounds was defined as the lowest concentration of said compounds that prevented bacterial growth as read by visual inspection. The MIC of ATB at each compound concentration was defined as the lowest concentration of ATB that prevented bacterial growth as read by visual inspection.

[3] = tested on: Providencia stuartii (PST) isolates; test: as above
Method: as §1, §3

[4] = tested on: Enterobacter aerogenes (EAE) isolates; test: as above
Method: as §1, §2

[5] = tested on: Klebsiella oxytoca (KOX) isolates; test: as above
Method: as §1, §2

## CC1(C)S[C@@H]2[C@H](NC(=O)[C@H](N)c3ccc(O)cc3)C(=O)N2[C@H]1C(=O)O [AMX, Amoxicillin]
[1]; PMI UFR82, AF2 @ 8 μg/mL
  MIC ATB in combination: <0.25 µg/mL
[1]; PMI UFR126, CLA @ 4 μg/mL
  MIC ATB in combination: 16 µg/mL
[1]; PMI UFR127, CLA @ 4 μg/mL
  MIC ATB in combination: 32 µg/mL
[1]; PMI UFR129, CLA @ 4 μg/mL
  MIC ATB in combination: 2 µg/mL
[1]; PMI UFR237, CLA @ 4 μg/mL
  MIC ATB in combination: 4 µg/mL
[1]; strain PMI UFR82, genotype CMY-2
  MIC: 256 µg/mL
[1]; strain PMI UFR120, genotype TEM-1, SHV-11, CTX-M-14
  MIC: >128 µg/mL
[1]; strain PMI UFR121, genotype TEM-1, TEM-52
  MIC: >128 µg/mL
[1]; strain PMI UFR122, genotype TEM-1, CTX-M-15
  MIC: >128 µg/mL
[1]; strain PMI UFR123, genotype CTX-M-1
  MIC: >128 µg/mL
[1]; strain PMI UFR124, genotype CTX-M-2
  MIC: >128 µg/mL
[1]; strain PMI UFR125, genotype CTX-M-71
  MIC: >128 µg/mL
[1]; strain PMI UFR126, genotype TEM-2, PER-1
  MIC: >128 µg/mL
[1]; strain PMI UFR127, genotype VEB-1
  MIC: >128 µg/mL
[1]; strain PMI UFR128, genotype VEB-1, OXA-10
  MIC: >128 µg/mL
[1]; strain PMI UFR129, genotype TEM-1, VEB-6
  MIC: >128 µg/mL
[1]; strain PMI UFR130, genotype CMY-2
  MIC: >128 µg/mL
[1]; strain PMI UFR131, genotype CMY-16, OXA-1, OXA-10, NDM-1, ArmA
  MIC: >128 µg/mL
[1]; strain PMI UFR132, genotype VEB-6, DHA-1, NDM-1, AphA6, AacA4
  MIC: >128 µg/mL
[1]; strain PMI UFR133, genotype OXA-23
  MIC: >128 µg/mL
[1]; strain PMI UFR237, genotype VEB-6
  MIC: >128 µg/mL
[2]; STY S3371, AF2 @ 8 μg/mL
  MIC ATB in combination: <0.25 µg/mL
[3]
  MIC ATB in combination: 128 µg/mL and >128 µg/mL
[3]; PST UFR120, CLA @ 4 μg/mL
  MIC ATB in combination: 8 µg/mL
[3]; PST UFR121, CLA @ 4 μg/mL
  MIC ATB in combination: 4 µg/mL
[3]; PST UFR122, CLA @ 4 μg/mL
  MIC ATB in combination: 8 µg/mL
[3]; PST UFR123, CLA @ 4 μg/mL
  MIC ATB in combination: 16 µg/mL
[3]; PST UFR125, CLA @ 4 μg/mL
  MIC ATB in combination: 4 µg/mL
[3]; strain PST UFR94, genotype CTX-M-14
  MIC: >128 µg/mL
[3]; strain PST UFR95, genotype TEM-24
  MIC: >128 µg/mL
[3]; strain PST UFR98, genotype TEM-1, CMY-6, OXA-1, NDM-1, RmtC
  MIC: >128 µg/mL
[3]; strain PST UFR235, genotype VEB-1
  MIC: >128 µg/mL
[4]; EAE 49469, AF2 @ 8 μg/mL
  MIC ATB in combination: <=0.25 μg/mL
[4]; EAE 49469, CLA @ 4 μg/mL
  MIC ATB in combination: >128 µg/mL
[4]; EAE 200261, AF2 @ 8 μg/mL
  MIC ATB in combination: 16 µg/mL
[4]; EAE 200261, CLA @ 4 μg/mL
  MIC ATB in combination: >128 µg/mL
[4]; EAE UFR199, CLA @ 4 μg/mL
  MIC ATB in combination: >128 µg/mL
[4]; EAE UFR201, CLA @ 4 μg/mL
  MIC ATB in combination: 16 µg/mL
[4]; EAE UFR202, CLA @ 4 μg/mL
  MIC ATB in combination: >128 µg/mL
[4]; EAE UFR207, CLA @ 4 μg/mL
  MIC ATB in combination: 32 µg/mL
[4]; EAE UFR213, CLA @ 4 μg/mL
  MIC ATB in combination: >128 µg/mL
[4]; strain EAE 49469, genotype AmpC
  MIC: >1024 µg/mL
[4]; strain EAE 200261, genotype TEM-x, AmpC
  MIC: >256 µg/mL
[4]; strain EAE UFR199, genotype TEM-1b, SHV-12, KPC-2, OXA-9
  MIC: >128 µg/mL
[4]; strain EAE UFR201, genotype TEM-1, SHV-12, CTX-M-15
  MIC: >128 µg/mL
[4]; strain EAE UFR202, genotype TEM-24
  MIC: >128 µg/mL
[4]; strain EAE UFR213, genotype TEM-24
  MIC: >128 µg/mL
[5]
  MIC: >128 µg/mL
  MIC ATB in combination: >128 µg/mL
[5]; strain KOX UFR21, genotype TEM-1, CTX-M-15, OXA-48
  MIC: >256 µg/mL
[5]; strain KOX UFR223, genotype SHV-11, OXA-48
  MIC: >128 µg/mL
[5]; strain KOX UFR224, genotype CTX-M-15, OXA-48
  MIC: >128 µg/mL

## C=CC1=C(C(=O)O)N2C(=O)[C@@H](NC(=O)/C(=N\O)c3csc(N)n3)[C@H]2SC1 [CDR, Cefdinir]
[1]; Proteus mirabilis, strain PMI UFR82, genotype CMY-2, read-out: MIC
  MIC: 16 µg/mL
[1]; Proteus mirabilis, strain PMI UFR120, genotype TEM-1, SHV-11, CTX-M-14, read-out: MIC
  MIC: 64 µg/mL
[1]; Proteus mirabilis, strain PMI UFR121, genotype TEM-1, TEM-52
  MIC: > 256 µg/mL
[1]; Proteus mirabilis, strain PMI UFR122, genotype TEM-1, CTX-M-15, read-out: MIC
  MIC: 16 µg/mL
[1]; Proteus mirabilis, strain PMI UFR123, genotype CTX-M-1
  MIC: > 256 µg/mL
[1]; Proteus mirabilis, strain PMI UFR124, genotype CTX-M-2
  MIC: > 256 µg/mL
[1]; Proteus mirabilis, strain PMI UFR125, genotype CTX-M-71, read-out: MIC
  MIC: 256 µg/mL
[1]; Proteus mirabilis, strain PMI UFR126, genotype TEM-2, PER-1
  MIC: > 256 µg/mL
[1]; Proteus mirabilis, strain PMI UFR127, genotype VEB-1
  MIC: > 256 µg/mL
[1]; Proteus mirabilis, strain PMI UFR129, genotype TEM-1, VEB-6
  MIC: > 256 µg/mL
[1]; Proteus mirabilis, strain PMI UFR130, genotype CMY-2, read-out: MIC
  MIC: 16 µg/mL
[1]; Proteus mirabilis, strain PMI UFR237, genotype VEB-6
  MIC: > 256 µg/mL
[2]; Salmonella enterica, TYPHIMURIUM
  MIC: 0.5 µg/mL
[3]; Providencia stuartii, strain PST UFR94, genotype CTX-M-14, read-out: MIC
  MIC: 64 µg/mL
[3]; Providencia stuartii, strain PST UFR95, genotype TEM-24, read-out: MIC
  MIC: 32 µg/mL
[3]; Providencia stuartii, strain PST UFR235, genotype VEB-1, read-out: MIC
  MIC: 256 µg/mL
[4]; Klebsiella aerogenes
  MIC: > 256 µg/mL
[4]; Klebsiella aerogenes, strain EAE 49469, genotype AmpC, read-out: MIC
  MIC: > 128 µg/mL
[4]; Klebsiella aerogenes, strain EAE UFR202, genotype TEM-24, read-out: MIC
  MIC: 256 µg/mL
[4]; Klebsiella aerogenes, strain EAE UFR213, genotype TEM-24, read-out: MIC
  MIC: 256 µg/mL
[5]; Klebsiella oxytoca
  MIC: > 256 µg/mL
